The values that follow come from patent US20200390899A1, “AMINOBENZAZEPINE COMPOUNDS, IMMUNOCONJUGATES, AND USES THEREOF” (BOLT BIOTHERAPEUTICS, INC., priority 2019, published 2020).

Where two headings read alike, the source gives them in different places. Bounds are passed on as bounds.

Usually EC50 stands for the concentration that produces a half-maximal response.

The target in assay [1] is T1, human TLR7 (Homo sapiens, UniProt Q9NYK1).
T1 construct: host or cells: HEK293 reporter cells
T1 sequence (Q9NYK1 27-1049): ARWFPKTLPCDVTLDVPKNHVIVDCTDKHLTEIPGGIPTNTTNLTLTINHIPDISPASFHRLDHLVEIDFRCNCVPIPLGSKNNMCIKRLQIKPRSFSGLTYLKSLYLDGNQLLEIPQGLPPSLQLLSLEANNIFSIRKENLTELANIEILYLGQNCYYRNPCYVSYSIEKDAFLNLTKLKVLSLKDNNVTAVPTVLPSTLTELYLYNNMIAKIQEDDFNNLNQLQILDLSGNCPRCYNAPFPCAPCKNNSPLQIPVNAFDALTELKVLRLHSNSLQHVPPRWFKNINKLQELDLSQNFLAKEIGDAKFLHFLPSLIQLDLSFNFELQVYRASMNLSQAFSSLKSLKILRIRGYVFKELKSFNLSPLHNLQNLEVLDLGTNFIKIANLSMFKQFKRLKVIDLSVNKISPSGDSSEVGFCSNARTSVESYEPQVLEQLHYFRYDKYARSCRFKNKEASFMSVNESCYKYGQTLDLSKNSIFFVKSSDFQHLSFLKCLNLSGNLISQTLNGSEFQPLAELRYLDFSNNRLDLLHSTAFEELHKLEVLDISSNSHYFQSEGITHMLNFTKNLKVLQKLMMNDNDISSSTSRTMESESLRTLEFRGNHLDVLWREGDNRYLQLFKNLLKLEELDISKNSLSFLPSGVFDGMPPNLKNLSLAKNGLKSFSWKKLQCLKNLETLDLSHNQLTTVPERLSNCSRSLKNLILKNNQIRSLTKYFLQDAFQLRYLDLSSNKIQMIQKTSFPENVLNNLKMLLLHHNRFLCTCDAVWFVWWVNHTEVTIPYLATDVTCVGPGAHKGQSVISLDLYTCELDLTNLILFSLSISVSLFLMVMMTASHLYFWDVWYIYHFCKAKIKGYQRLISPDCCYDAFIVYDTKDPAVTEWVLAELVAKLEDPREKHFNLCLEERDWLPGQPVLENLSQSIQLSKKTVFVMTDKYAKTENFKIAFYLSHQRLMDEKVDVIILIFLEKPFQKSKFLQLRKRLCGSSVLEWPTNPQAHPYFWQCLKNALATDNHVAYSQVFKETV
Put plainly: HEK293 NFKB reporter assay, human TLR7. It counts as cell-based. The following applies: HEK293 reporter cells expressing human TLR7, read-out: HEK293 hTLR7 EC50. Here is the method: (§1) Each compound was synthesized and purified by the methods in the Examples provided herein, characterized by mass spectrometry, and shown to have the mass indicated. Activity against HEK293 NFKB reporter cells expressing human TLR7 or human TLR8 was measured according to Example 68.
(§2) HEK293 reporter cells expressing human TLR7 or human TLR8 were purchased from Invivogen and vendor protocols were followed for cellular propagation and experimentation. Briefly, cells were grown to 80-85% confluence at 5% CO2 in DMEM supplemented with 10% FBS, Zeocin, and Blasticidin. Cells were then seeded in 96-well flat plates at 4×10^4cells/well with substrate containing HEK detection medium and immunostimulatory molecules. Activity was measured using a plate reader at 620-655 nm wavelength.
(In general: Reporter assays use an easily measured gene product as a stand-in for the process of interest.)

The target in assay [2] is T2, human TLR8 (Homo sapiens, UniProt Q9NR97).
T2 construct: host or cells: HEK293 reporter cells
T2 sequence (Q9NR97 27-1041): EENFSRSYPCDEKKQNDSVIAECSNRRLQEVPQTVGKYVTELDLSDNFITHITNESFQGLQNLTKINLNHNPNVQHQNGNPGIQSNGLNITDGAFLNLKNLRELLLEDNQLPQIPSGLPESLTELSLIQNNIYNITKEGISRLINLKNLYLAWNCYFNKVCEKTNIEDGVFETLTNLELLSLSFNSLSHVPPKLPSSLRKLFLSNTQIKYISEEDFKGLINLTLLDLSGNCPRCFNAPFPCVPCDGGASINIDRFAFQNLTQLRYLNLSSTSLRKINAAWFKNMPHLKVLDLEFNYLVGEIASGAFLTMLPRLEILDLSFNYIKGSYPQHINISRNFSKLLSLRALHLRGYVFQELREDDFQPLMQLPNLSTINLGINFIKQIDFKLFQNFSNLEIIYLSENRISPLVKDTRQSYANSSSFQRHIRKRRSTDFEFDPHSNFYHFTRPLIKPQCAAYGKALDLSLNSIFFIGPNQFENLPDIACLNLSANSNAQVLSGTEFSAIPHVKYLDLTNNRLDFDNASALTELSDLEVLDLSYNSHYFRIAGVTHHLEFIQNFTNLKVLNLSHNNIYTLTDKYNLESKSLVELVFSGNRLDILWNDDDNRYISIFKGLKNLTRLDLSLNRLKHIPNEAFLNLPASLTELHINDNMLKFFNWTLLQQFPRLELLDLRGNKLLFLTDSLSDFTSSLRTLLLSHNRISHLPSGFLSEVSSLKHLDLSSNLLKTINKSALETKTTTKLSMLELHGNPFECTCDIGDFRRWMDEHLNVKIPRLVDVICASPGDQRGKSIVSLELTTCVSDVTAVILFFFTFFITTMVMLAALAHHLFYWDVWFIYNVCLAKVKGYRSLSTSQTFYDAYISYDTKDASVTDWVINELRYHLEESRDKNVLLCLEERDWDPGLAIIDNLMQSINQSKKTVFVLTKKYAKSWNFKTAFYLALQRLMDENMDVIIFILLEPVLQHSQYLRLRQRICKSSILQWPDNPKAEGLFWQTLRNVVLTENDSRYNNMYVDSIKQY
Put plainly: HEK293 NFKB reporter assay, human TLR8. The following applies: HEK293 reporter cells expressing human TLR8, read-out: HEK293 hTLR8 EC50. The format is cell-based. How it is done:
as §1, §2

For the molecule `CCCN(CCCNC(=O)OC(C)(C)C)C(=O)C1=Cc2ccc(-c3cccc(S(=O)(=O)N4CC(CO)C4)c3)cc2N=C(N)C1` [Bz-1, tert-butyl N-[3-[[2-amino-8-[3-[3-(hydroxymethyl)azetidin-1-yl]sulfonylphenyl]-3H-1-benzazepine-4-carbonyl]-propyl-amino]propyl]carbamate], the EC50 was determined as 571 nM in assay [1] (Table 1a) and 106 nM in assay [2] (Table 1a).
In the same order, the values of `CCCN(CCC)C(=O)C1=Cc2ccc(-c3ccc(CN)c(S(=O)(=O)N4CC(CO)C4)c3)cc2N=C(N)C1` [Bz-2] are more than 9000 nM and 9760 nM.
The like results for `CCCN(CCCN(C)C(=O)OC(C)(C)C)C(=O)C1=Cc2ccc(-c3cccc(S(=O)(=O)N4CC(CO)C4)c3)cc2N=C(N)C1` [Bz-3, tert-butyl (3-(2-amino-8-(3-((3-(hydroxymethyl)azetidin-1-yl)sulfonyl)phenyl)-N-propyl-3H-benzo[b]azepine-4-carboxamido)propyl)(methyl)carbamate] were, in that order, 545 nM and 4310 nM.
In the same order, the values of `CCCN(CCCNC(=O)OC(C)(C)C)C(=O)C1=Cc2ccc(-c3ccc(C(=O)N4CCCC4)cc3)cc2N=C(N)C1` [Bz-4] are 1480 nM and 1680 nM.
For the molecule `CCCN(CCC)C(=O)C1=Cc2c(CCCCNC(=O)OC(C)(C)C)cc(-c3cccc(S(=O)(=O)N4CC(CO)C4)c3)cc2N=C(N)C1` [Bz-5, tert-butyl (4-(2-amino-4-(dipropylcarbamoyl)-8-(3-((3-(hydroxymethyl)azetidin-1-yl)sulfonyl)phenyl)-3H-benzo[b]azepin-6-yl)butyl)carbamate], the EC50 in assay [1] (Table 1a) is 155 nM; in assay [2] (Table 1a), 256 nM.
In the same order, the values of `CCCN(CCC)C(=O)C1=Cc2ccc(-c3cccc(S(=O)(=O)N4CC(CNC(=O)OC(C)(C)C)C4)c3)cc2N=C(N)C1` [Bz-6, tert-butyl ((1-((3-(2-amino-4-(dipropylcarbamoyl)-3H-benzo[b]azepin-8-yl)phenyl)sulfonyl)azetidin-3-yl)methyl)carbamate] are more than 9000 nM and 265 nM.
In the case of `CCCN(CCC)C(=O)C1=Cc2ccc(C(=O)Nc3cncc(CNC(=O)OC(C)(C)C)c3)cc2N=C(N)C1` [Bz-7], the figures for the EC50 in assay [1] (Table 1a) and in assay [2] (Table 1a) were more than 9000 nM and 4.28 nM, respectively.
In the same order, the values of `CCCN(CCCN(C)C(=O)OC(C)(C)C)C(=O)C1=Cc2ccc(-c3ccc(C(=O)N4CCCC4)cc3)cc2N=C(N)C1` [Bz-8] are 3370 nM and more than 9000 nM.
In the same order, the values of `CCCN(CCCCCNC(=O)OC(C)(C)C)C(=O)C1=Cc2ccc(-c3cccc(S(=O)(=O)N4CC(CO)C4)c3)cc2N=C(N)C1` [Bz-9, tert-butyl N-[5-[[2-amino-8-[3-[3-(hydroxymethyl)azetidin-1-yl]sulfonylphenyl]-3H-1-benzazepine-4-carbonyl]-propyl-amino]pentyl]carbamate] are 8650 nM and 629 nM.
The like results for `CCCN(CCNC(=O)OC(C)(C)C)C(=O)C1=Cc2ccc(-c3cccc(S(=O)(=O)N4CC(CO)C4)c3)cc2N=C(N)C1` [Bz-10, tert-butyl (2-(2-amino-8-(3-((3-(hydroxymethyl)azetidin-1-yl)sulfonyl)phenyl)-N-propyl-3H-benzo[b]azepine-4-carboxamido)ethyl)carbamate] were, in that order, more than 9000 nM and more than 9000 nM.
In the case of `CCCN(CCCNC(=O)NC(C)(C)C)C(=O)C1=Cc2ccc(-c3cccc(S(=O)(=O)N4CC(CO)C4)c3)cc2N=C(N)C1` [Bz-11, 2-amino-N-[3-(tert-butylcarbamoylamino)propyl]-8-[3-[3-(hydroxymethyl)azetidin-1-yl]sulfonylphenyl]-N-propyl-3H-1-benzazepine-4-carboxamide], the EC50 in assay [1] (Table 1a) amounted to 7840 nM; in assay [2] (Table 1a), 1390 nM.
`CCCN(Cc1ccc(CN2CCN(C(=O)OC(C)(C)C)CC2)cc1)C(=O)C1=Cc2ccc(-c3cccc(S(=O)(=O)N4CC(CO)C4)c3)cc2N=C(N)C1` [Bz-30, tert-butyl 4-[[4-[[[2-amino-8-[3-[3-(hydroxymethyl)azetidin-1-yl]sulfonylphenyl]-3H-1-benzazepine-4-carbonyl]-propyl-amino]methyl]phenyl]methyl]piperazine-1-carboxylate]: the EC50 in assay [1] (Table 1b) is more than 9000 nM.
In the case of `CCCN(Cc1ccc(CN2CCN(C(=O)OC(C)(C)C)CC2)cc1)C(=O)C1=Cc2ccc(-c3cccc(S(=O)(=O)N4CC(CO)C4)c3)cc2N=C(N)C1` [Bz-44], the EC50 in assay [1] (Table 1c) was not below 9000 nM.
Turning to `CCCN(CCC)C(=O)C1=Cc2ccc(-c3c(C)n[nH]c3C)cc2N=C(N)C1` [Bz-45], the EC50 in assay [2] (Table 1c) turned out to be 345 nM.
Same read-out and setting: in the case of `CCCN(CCC)C(=O)C1=Cc2ccc(-c3c(C)nn(S(=O)(=O)N4CC(CO)C4)c3C)cc2N=C(N)C1` [Bz-48] it was 499 nM.
Still for that read-out and setting: in the case of `CCCN(CCC)C(=O)C1=Cc2ccc(-c3cccc(S(=O)(=O)N4CC5(CNC5)C4)c3)cc2N=C(N)C1` [Bz-52] it was 1320 nM; in that of `CCCN(CCC)C(=O)C1=Cc2ccc(-c3cccc(S(=O)(=O)N4CC5(CCNC5)C4)c3)cc2N=C(N)C1` [Bz-53], 249 nM; in that of `CCCN(CCC)C(=O)C1=Cc2ccc(-c3cccc(S(=O)(=O)N4CCC(N)CC4)c3)cc2N=C(N)C1` [Bz-54], 198 nM.
Same read-out and setting: in the case of `CCCN(CCC)C(=O)C1=Cc2ccc(-c3cccc(S(=O)(=O)N4[C@@H]5CNC[C@@H]54)c3)cc2N=C(N)C1` (stereo partly shown) [Bz-56] it was 111 nM; in that of `CCCN(CCC)C(=O)C1=Cc2ccc(-c3cccc(S(=O)(=O)N4CCC5(CCNC5)C4)c3)cc2N=C(N)C1` (stereo not shown) [Bz-57], 741 nM; in that of `CCCN(Cc1ccc(CN)cc1)C(=O)C1=Cc2ccccc2N=C(N)C1` [Bz-59], 870 nM.
`CCCN(CCOC)C(=O)C1=Cc2ccc(-c3cccc(S(=O)(=O)N4CC(CO)C4)c3)cc2N=C(N)C1` [Bz-60]: the EC50 in assay [2] (Table 1c) is 288 nM.
On the same count and under the same terms, as for `CCCN(NCC)C(=O)C1=Cc2ccc(-c3cccc(S(=O)(=O)N4CC(CO)C4)c3)cc2N=C(N)C1` [Bz-71], the figure is 2750 nM; as for `CCCNN(CC)C(=O)C1=Cc2ccc(-c3cccc(S(=O)(=O)N4CC(CO)C4)c3)cc2N=C(N)C1` [Bz-72], 4250 nM; as for `CCCN(CCC)C(=O)C1=Cc2ccc(CCCCCN)cc2N=C(N)C1` [Bz-74], 2560 nM.
`CCCN(CCC(F)(F)F)C(=O)C1=Cc2ccc(C(=O)Nc3ccccc3)cc2N=C(N)C1` [Bz-75]: in assay [2] (Table 1c), the concentration giving a half-maximal response (EC50) stood at 246 nM.
